Reference: ChEMBL document CHEMBL1128209, “Cyclooxygenase-2 inhibitors. Synthesis and pharmacological activities of 5-methanesulfonamido-1-indanone derivatives” (J Med Chem, 1995)

Assays:
[1] = biological target: T1, Prostaglandin G/H synthase 2 (Homo sapiens, UniProt P35354); experiment: In vitro inhibition of prostaglandin G/H synthase 2 expressed in human osteosarcoma 143 cells; assay type: cell-based
T1 sequence (P35354 whole entry): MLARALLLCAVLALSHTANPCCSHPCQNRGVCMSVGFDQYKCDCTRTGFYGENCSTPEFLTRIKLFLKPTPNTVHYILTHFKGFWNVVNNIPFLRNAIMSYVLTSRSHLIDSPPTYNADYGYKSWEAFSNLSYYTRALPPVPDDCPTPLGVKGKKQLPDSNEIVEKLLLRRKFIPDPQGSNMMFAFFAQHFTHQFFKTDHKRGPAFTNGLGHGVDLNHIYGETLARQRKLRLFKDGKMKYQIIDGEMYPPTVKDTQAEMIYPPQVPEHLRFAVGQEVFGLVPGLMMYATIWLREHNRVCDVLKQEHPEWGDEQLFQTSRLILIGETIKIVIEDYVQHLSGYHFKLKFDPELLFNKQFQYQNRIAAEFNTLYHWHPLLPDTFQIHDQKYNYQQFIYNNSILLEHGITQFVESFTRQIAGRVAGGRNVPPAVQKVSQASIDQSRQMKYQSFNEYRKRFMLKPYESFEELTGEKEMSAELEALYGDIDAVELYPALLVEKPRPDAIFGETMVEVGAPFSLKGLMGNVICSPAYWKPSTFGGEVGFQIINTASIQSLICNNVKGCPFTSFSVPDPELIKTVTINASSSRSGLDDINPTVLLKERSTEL

[2] = biological target: Prostaglandin G/H synthase 1 (Homo sapiens, UniProt P23219); experiment: Inhibition of Prostaglandin G/H synthase 1 in human U937 cells; assay type: cell-based, U-937
[3] = test system: Rattus norvegicus; experiment: In vivo antiinflammatory activity by the Carrageenan-induced rat paw edema assay.; assay type: functional
[4] = Plasma Clearance rate was determined for the compound in rats; assay type: ADME, organism-based; settings: rat
[5] = Plasma Clearance rate was determined for the compound in squirrel monkeys; assay type: ADME, organism-based; settings: saimiri
[6] = Bioavailability in rat; assay type: ADME, organism-based; settings: in vivo
[7] = Bioavailability in squirrel monkey; assay type: ADME, organism-based, Saimiri sciureus; settings: in vivo
[8] = Plasma terminal half life in squirrel monkeys at a dose of 1 mg/kg administered intravenously; assay type: ADME, organism-based; set-up: dose 1 mg/kg, route intravenous; settings: saimiri, iv
[9] = biological target: T2, Prostaglandin G/H synthase 2 (Homo sapiens) (UniProt P35354); experiment: Ability to inhibit the Prostaglandin G/H synthase 2 expressed in human osteosarcoma 143 cells, in vitro; assay type: cell-based; settings: concentration not given here
T2 sequence (whole entry): T1 sequence (P35354 whole entry)

[10] = test system: Rattus norvegicus; experiment: In vivo antipyretic activity by endotoxin-induced rat pyresis assay.; assay type: functional
[11] = test system: Rattus norvegicus; experiment: In vivo antiinflammatory activity by the Carrageenan-induced rat paw hyperalgesia assay.; assay type: functional
[12] = Plasma clearance rate was determined for the compound in rats; assay type: ADME, organism-based; settings: rat
[13] = Plasma clearance rate was determined for the compound in squirrel monkeys; assay type: ADME, organism-based; settings: saimiri
[14] = test system: Rattus norvegicus; experiment: In vivo antiinflammatory activity by the Carrageenan-induced rat paw edema assay; assay type: functional

Chain of Prostaglandin G/H synthase 1 (P23219 whole entry): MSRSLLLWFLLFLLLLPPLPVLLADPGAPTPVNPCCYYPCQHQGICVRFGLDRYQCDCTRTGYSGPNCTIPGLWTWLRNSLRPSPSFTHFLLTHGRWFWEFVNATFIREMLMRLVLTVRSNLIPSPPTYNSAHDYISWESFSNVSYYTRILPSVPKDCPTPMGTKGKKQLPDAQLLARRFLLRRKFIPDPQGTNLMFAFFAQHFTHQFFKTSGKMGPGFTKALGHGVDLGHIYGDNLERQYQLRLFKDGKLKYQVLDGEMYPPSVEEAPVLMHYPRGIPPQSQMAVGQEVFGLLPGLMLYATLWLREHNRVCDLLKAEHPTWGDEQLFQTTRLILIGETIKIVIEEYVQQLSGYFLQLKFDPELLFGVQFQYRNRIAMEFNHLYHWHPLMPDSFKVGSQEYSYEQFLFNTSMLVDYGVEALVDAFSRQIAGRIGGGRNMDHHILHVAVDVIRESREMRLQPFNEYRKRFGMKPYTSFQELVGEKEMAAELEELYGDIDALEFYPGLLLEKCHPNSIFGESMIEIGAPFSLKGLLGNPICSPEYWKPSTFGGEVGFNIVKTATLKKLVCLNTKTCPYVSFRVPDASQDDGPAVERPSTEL

IC50 [1] [µM] | IC50 [2] [µM] | Structure (SMILES) | also measured
– | > 50 | CS(=O)(=O)Nc1cc2c(cc1Oc1ccc(F)cc1F)C(=O)CC2 [FLOSULIDE] | clearance [4]: 1.2 mL/min; clearance [5]: 1.2 mL/min; bioavailability [6]: 92%; bioavailability [7]: 63%; half-life [8]: 4.9 h; ED30 [3]: 0.6 MPK
– | – | CS(=O)(=O)Nc1cc2c(cc1Sc1cccnc1)C(=O)CC2 | inhibition [9]: 30%
0.04 | – | O=C1CCc2cc(NS(=O)(=O)C(F)(F)F)c(Sc3ccc(F)cc3F)cc21 | –
> 10 | – | CS(=O)(=O)Nc1cc2c(cc1OC1CCOCC1)C(=O)CC2 | –
1 | – | CS(=O)(=O)Nc1cc2c(cc1Nc1ccc(F)cc1F)C(=O)CC2 | –
– | – | COc1ccc2c(c1)c(CC(=O)O)c(C)n2C(=O)c1ccc(Cl)cc1 [INDOMETHACIN] | ED50 [10]: 7 mg/kg; ED50 [3]: 2 mg/kg; ED50 [11]: 1.47 mg/kg
0.1 | > 50 | CS(=O)(=O)Nc1cc2c(cc1Sc1c(F)cccc1F)C(=O)CC2 | –
0.1 | > 10 | CS(=O)(=O)Nc1cc2c(cc1Sc1nccs1)C(=O)CC2 | ED30 [3]: 0.85 MPK
> 10 | > 10 | CCS(=O)(=O)Nc1cc2c(cc1Sc1ccc(F)cc1F)C(=O)CC2 | –
> 10 | – | CS(=O)(=O)Nc1cc2c(cc1Sc1cncs1)C(=O)CC2 | –
0.1 | > 50 | CS(=O)(=O)Nc1cc2c(cc1Sc1ccccc1F)C(=O)CC2 | –
> 10 | – | CS(=O)(=O)Nc1cc2c(cc1Sc1cscn1)C(=O)CC2 | –
> 10 | – | COc1ccccc1Sc1cc2c(cc1NS(C)(=O)=O)CCC2=O | –
0.1 | – | CSc1ccc(Oc2cc3c(cc2NS(C)(=O)=O)CCC3=O)cc1 | –
0.01 | 40 | CS(=O)(=O)Nc1cc2c(cc1Sc1ccc(Cl)cc1Cl)C(=O)CC2 | ED30 [3]: 0.1 MPK
1 | – | CS(=O)(=O)Nc1cc2c(cc1Sc1ccncc1)C(=O)CC2 | –
0.1 | – | CCc1ccc(Sc2cc3c(cc2NS(C)(=O)=O)CCC3=O)cc1 | –
> 10 | – | CC(C)c1ccc(Sc2cc3c(cc2NS(C)(=O)=O)CCC3=O)cc1 | –
– | > 50 | CS(=O)(=O)Nc1cc2c(cc1Sc1ccc(F)cc1F)C(=O)CC2 | clearance [12]: 0.5 mL/min; clearance [13]: 0.5 mL/min; bioavailability [6]: 90%; bioavailability [7]: 145%; half-life [8]: 6.9 h; ED30 [14]: 0.21 MPK

IC50 [1] [µM] | IC50 [2] [µM] | Structure (SMILES) | also measured
– | > 1 | Cc1ccc(Sc2cc3c(cc2NS(C)(=O)=O)CCC3=O)cc1 | ED30 [3]: 10 MPK
> 10 | – | CC(C)(C)c1ccc(Sc2cc3c(cc2NS(C)(=O)=O)CCC3=O)cc1 | –
> 0.2 | < 1 | CS(=O)(=O)Nc1cc2c(cc1Cc1ccc(F)cc1F)C(=O)CC2 | –
0.1 | – | CS(=O)(=O)Nc1cc2c(cc1Sc1ccccn1)C(=O)CC2 | –
– | > 50 | Cc1ccccc1Sc1cc2c(cc1NS(C)(=O)=O)CCC2=O | –
> 10 | – | CS(=O)(=O)Nc1cc2c(cc1Sc1cccc(F)c1)C(=O)CC2 | –
1 | – | CS(=O)(=O)Nc1cc2c(cc1Sc1cccs1)C(=O)CC2 | –
1 | > 50 | CS(=O)(=O)Nc1cc2c(cc1Sc1ccc(F)cc1)C(=O)CC2 | –
> 10 | – | CS(=O)(=O)Nc1cc2c(cc1S(=O)(=O)c1ccc(F)cc1F)C(=O)CC2 | –
0.1 | – | COc1ccc(Sc2cc3c(cc2NS(C)(=O)=O)CCC3=O)cc1 | –
> 10 | – | CS(=O)(=O)Nc1cc2c(cc1Oc1ccc(S(C)(=O)=O)cc1)C(=O)CC2 | –
> 10 | – | Cc1cccc(Sc2cc3c(cc2NS(C)(=O)=O)CCC3=O)c1 | –
> 10 | – | CC(=O)Nc1cc2c(cc1Sc1ccc(F)cc1F)C(=O)CC2 | –
> 10 | – | CS(=O)(=O)Nc1cc2c(cc1Sc1ccc(C(=O)O)cc1)C(=O)CC2 | –
– | – | CS(=O)(=O)Nc1cc2c(cc1[S+]([O-])c1ccc(F)cc1F)C(=O)CC2 (stereo unspecified) | inhibition [9]: 27%
> 1 | > 10 | CS(=O)(=O)Nc1cc2c(cc1OC1CCCC1)C(=O)CC2 | –
> 10 | – | O=C1CCc2cc(NC(=O)C(F)(F)F)c(Sc3ccc(F)cc3F)cc21 | –
– | – | CS(=O)(=O)Nc1cc2c(cc1Sc1ccsc1)C(=O)CC2 | inhibition [9]: 46%

Structure (SMILES) | IC50 [1] [µM] | IC50 [2] [µM] | also measured
CS(=O)(=O)Nc1cc2c(cc1OC1CCCCC1)C(=O)CC2 | 0.05 | > 1 | ED30 [3]: 10 MPK
CS(=O)(=O)Nc1cc2c(cc1Sc1ccc(Br)cc1)C(=O)CC2 | 0.01 | > 10 | ED30 [3]: 3 MPK
CS(=O)(=O)Nc1cc2c(cc1SC1CCCCC1)C(=O)CC2 | 0.05 | > 50 | ED30 [3]: >3 MPK
